Data reported in PMC2930046 (Archives of biochemistry and biophysics, 2010).
pIC50, pKi: −log10 of the molar value. Peptide text beside a SMILES is read from it. * marks the point of attachment. AMC = Cc1cc(=O)oc2cc(N*)ccc12; Cbz = O=C(OCc1ccccc1)*

How the values were obtained:
Mtb proteasome = settings: cited from earlier work
mammalian proteasome = settings: cited from earlier work
[1] = tested on: fibroblasts and glial-derived cells; settings: through inhibition of proteasome activity; cited from earlier work
proteasome β5 = settings: read-out: IC50 for β5; cited from earlier work
Mtb20SOG [2] = molecular target: T1, Mtb20SOG (Mycobacterium tuberculosis, UniProt P9WHT9); type: biochemical; settings: retest of screening hits
cancer cells = settings: cited from earlier work
human 20S β5 = human 20S β5 (Homo sapiens, UniProt P28074); type: biochemical
Mtb20SOG [3] = molecular target: T1, Mtb20SOG; assay: Kinetics of inhibition of Mtb20SOG, progress curves of Suc-LLVY-AMC cleavage; type: biochemical

T1 sequence (P9WHT9 58-291): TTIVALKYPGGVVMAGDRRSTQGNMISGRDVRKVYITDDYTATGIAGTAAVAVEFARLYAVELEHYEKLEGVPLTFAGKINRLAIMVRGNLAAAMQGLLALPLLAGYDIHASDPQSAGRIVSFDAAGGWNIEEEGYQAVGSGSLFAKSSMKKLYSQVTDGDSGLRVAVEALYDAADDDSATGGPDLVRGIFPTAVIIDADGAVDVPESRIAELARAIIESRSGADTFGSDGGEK

In the case of `CC(=O)NC(CC(N)=O)C(=O)NC(CCC(N)=O)C(=O)NC(CC(C)C)C(=O)Nc1ccc2c(C)cc(=O)oc2c1` (stereo not drawn) [Ac-NQL-AMC] (Ac-Asn-Gln-Leu-{AMC}; configuration not given here), the “hydrolysis by the Mtb proteasome” value (Mtb proteasome) is given as “could not be hydrolyzed”.

For `CC(C)C[C@@H](C=O)NC(=O)[C@H](CC(C)C)NC(=O)[C@H](CC(C)C)NC(=O)OCc1ccccc1` [Z-Leu-Leu-Leu-Cho] (Cbz-Leu-Leu-Leu-aldehyde), the pKi (mammalian proteasome) is listed as 8.40.

In the case of `CCCCCCCCC[C@@H](O)CC(=O)N[C@@H](CC(N)=O)C(=O)N[C@@H](CCC(N)=O)C(=O)N[C@H](C=O)CC(C)C` [compound 1, (R)-3-hydroxydodecanoyl-Asn-Gln-Leu-CHO], the “release of nerve growth factor” value [1] is listed as “induce the release of nerve growth factor”, the pIC50 (proteasome β5) is listed as 8.02 and the “inhibition of Mtb20SOG on retest with re-supplied compound” value (Mtb20SOG [2]) is listed as “dose-dependent inhibition”. The “cytotoxicity to cancer cells” value (cancer cells) was “cytotoxic to cancer cells”, the “advantage on binding affinity of EI* over EI (ΔG = −RTlnK)” value (human 20S β5) was 1.5 kcal/mol and the k5/k6 ratio (human 20S β5) was 11. The pKi (human 20S β5; Ki, initial EI complex, corrected by equation 4, two-step mechanism) was 7.94, the “distribution of enzyme into EI*” value (human 20S β5; from k5/k6 ratio) was 91% and the pKi (Mtb20SOG [3]; Ki calculated from koff/kon, koff/kon) was 8.13. The pKi (Mtb20SOG [3]; Ki, Morrison fit of vs/vo vs [1], corrected by (1+[S]/KM), one-step slow binding) was 8.17, the pKi (Mtb20SOG [3]; Kiapp, apparent, Morrison equation 3, uncorrected) was 7.95 and the koff (Mtb20SOG [3]; read-out: k4 (koff)) was 0.00096 s⁻¹. The kon (Mtb20SOG [3]; read-out: kon^app (slope of the fit, apparent)) was 79500 M⁻¹ s⁻¹.
